{
  "source": "patent US20080194701A1",
  "about": "“Bifunctional Enzyme with Y-Glutamylcysteine Synthetase and Glutathione Synthetase Activity and Uses Thereof” (priority 2004, published 2008)",
  "key": {"[1]": {"target": "T1, Rat GS (Rattus norvegicus, UniProt P46413)", "T1 sequence (P46413 1-474)": "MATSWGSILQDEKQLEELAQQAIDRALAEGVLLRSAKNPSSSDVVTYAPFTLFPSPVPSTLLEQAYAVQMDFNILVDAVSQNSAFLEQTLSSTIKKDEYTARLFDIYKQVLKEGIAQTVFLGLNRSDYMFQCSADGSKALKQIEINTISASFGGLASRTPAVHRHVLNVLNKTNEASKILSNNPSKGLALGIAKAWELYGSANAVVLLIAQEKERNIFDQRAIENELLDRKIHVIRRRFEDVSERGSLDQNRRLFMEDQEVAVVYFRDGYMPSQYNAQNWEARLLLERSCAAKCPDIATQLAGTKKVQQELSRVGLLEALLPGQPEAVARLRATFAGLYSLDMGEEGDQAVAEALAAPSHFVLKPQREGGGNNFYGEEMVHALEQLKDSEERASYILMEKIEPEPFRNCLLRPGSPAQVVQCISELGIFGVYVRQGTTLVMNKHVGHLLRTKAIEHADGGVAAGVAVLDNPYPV", "details": "cited from earlier work"}, "[2]": {"target": "T2, S. agalactiae γ-GCS-GS (Streptococcus agalactiae serotype V, UniProt Q8DXM9)", "T2 sequence (Q8DXM9 1-750)": "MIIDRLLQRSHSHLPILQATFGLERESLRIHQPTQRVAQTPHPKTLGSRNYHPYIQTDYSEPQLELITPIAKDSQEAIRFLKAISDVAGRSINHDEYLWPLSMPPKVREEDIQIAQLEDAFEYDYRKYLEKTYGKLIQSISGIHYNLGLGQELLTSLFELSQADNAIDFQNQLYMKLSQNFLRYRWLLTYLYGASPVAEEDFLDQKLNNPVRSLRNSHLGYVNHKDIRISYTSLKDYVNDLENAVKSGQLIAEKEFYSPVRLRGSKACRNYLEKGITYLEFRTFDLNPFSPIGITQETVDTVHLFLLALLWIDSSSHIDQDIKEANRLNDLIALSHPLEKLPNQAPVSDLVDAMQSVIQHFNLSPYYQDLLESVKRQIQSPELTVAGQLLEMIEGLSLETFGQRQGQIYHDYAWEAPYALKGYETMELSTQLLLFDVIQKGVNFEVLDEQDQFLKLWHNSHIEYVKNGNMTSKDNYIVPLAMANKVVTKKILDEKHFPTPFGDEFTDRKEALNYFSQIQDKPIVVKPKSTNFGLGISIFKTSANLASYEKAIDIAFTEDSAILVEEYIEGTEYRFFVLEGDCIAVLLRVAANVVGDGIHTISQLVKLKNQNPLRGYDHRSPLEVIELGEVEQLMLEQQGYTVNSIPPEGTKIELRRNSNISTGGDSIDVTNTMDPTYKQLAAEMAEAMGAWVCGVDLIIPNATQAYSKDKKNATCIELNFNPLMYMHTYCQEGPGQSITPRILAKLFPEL", "assay": "γ-GCS activity assay based on ADP formation, S. agalactiae γ-GCS-GS", "type": "biochemical", "design": "corresponded to full-length S. agalactiae γ-GCS-GS with an N-terminal His8-tag; made in house; host or cells: E. coli SG13009 with pQE30-gshAB plus pREP4 or pRARE", "details": "γ-GCS activity", "description": "In Table 1, a unit was defined as the amount of enzyme activity required to catalyze the formation of 1 μmol of product per hour. Specific activity was shown as units per mg protein. Activity was determined at 37° C. based on ADP formation in reaction mixtures containing L-glutamate and L-cysteine and using pyruvate kinase and lactate dehydrogenase to couple ADP formation to NADH oxidation, which was monitored at 340 nm.\nExp. Purif. 13, 268-276 (1998).\nAt set time points ranging from one to 30 minutes, 5 μl aliquots were removed and assayed for residual enzyme activity using the standard γ-GCS assay based on ADP formation."}, "[3]": {"target": "T2, S. agalactiae γ-GCS-GS", "assay": "GS activity assay based on ADP formation, S. agalactiae γ-GCS-GS", "details": "GS activity", "description": "Transformed cells were grown, induced, and harvested by centrifugation, and were then broken using a French pressure cell. […] The column was equilibrated with 50 mM Tris HCl buffer, pH 7.4, containing 5 mM L-glutamate, 5 mM MgCl2, and 5 mM β-mercaptoethanol, and the high-speed supernatant was loaded. After washing the column with equilibration buffer to remove proteins lacking a His-tag, the expressed His8-tagged protein was eluted using the same buffer supplemented with 200 mM imidazole. Amount of γ-GCS activity was determined as described in Example 2. […] It was observed that the purified enzyme catalyzed both the γ-GCS and the GS reactions. Since the GS-specific activity was higher than the specific activity for any known GS enzyme, it was apparent that the expressed 85 kDa S. agalactiae protein (rather than a trace impurity), accounted for the observed GS activity. Using the pREP4 auxiliary plasmid instead of the pRARE plasmid gave somewhat lower yields (325 mg total protein vs. 442 mg protein using pRARE) but the specific activities of the γ-GCS activity (870 units/mg) and GS activities (1143 units/mg) were similar.\nResults for E. coli GS are from H. Gushima et al. J. Appl. Biochem. 5, 210-218 (1983). Results for rat GS are from J. L. Luo et al. Biochem. Biophys. Res. Commun. 275, 577-581 (2000). Results for human GS are from R. Njalsson et al. Biochem. Biophys. Res. Commun. 289, 80-84 (2001) and R. Njalsson et al. Biochem. J. 349, 275-279 (2000)."}},
  "data": [
    {"smiles": "Nc1ncnc2c1ncn2[C@@H]1O[C@H](COP(=O)(O)OP(=O)(O)OP(=O)(O)O)[C@@H](O)[C@H]1O", "note": "[ATP]", "values": [
      {"measurement": "Vmax", "setting": "[1]", "result": 678, "unit": "units/mg"},
      {"measurement": "Km", "setting": "[1]; substrate Km", "result": 37, "unit": "µM"},
      {"measurement": "Km", "setting": "[2]; substrate Km", "result": "66 ± 9", "unit": "µM"},
      {"measurement": "Vmax", "setting": "[2]; unit = 1 μmol product per hour", "result": "1332 ± 120", "unit": "units/mg"},
      {"measurement": "Vmax", "setting": "[3]; unit = 1 μmol product per hour", "result": "1662 ± 77", "unit": "units/mg"},
      {"measurement": "Km", "setting": "[3]; substrate Km", "result": "420 ± 49", "unit": "µM"}
    ]}
  ]
}
